# Measurements taken from ChEMBL document CHEMBL5728279, “Toll-like receptor 7 (TLR7) agonists having a pyridine or pyrazine moiety, conjugates thereof, and methods and uses therefor” (2021).
# pEC50: −log10 of the molar value.
# Target: T1, Toll-like receptor 7 (Homo sapiens, UniProt Q9NYK1)
# T1 sequence (Q9NYK1 whole entry): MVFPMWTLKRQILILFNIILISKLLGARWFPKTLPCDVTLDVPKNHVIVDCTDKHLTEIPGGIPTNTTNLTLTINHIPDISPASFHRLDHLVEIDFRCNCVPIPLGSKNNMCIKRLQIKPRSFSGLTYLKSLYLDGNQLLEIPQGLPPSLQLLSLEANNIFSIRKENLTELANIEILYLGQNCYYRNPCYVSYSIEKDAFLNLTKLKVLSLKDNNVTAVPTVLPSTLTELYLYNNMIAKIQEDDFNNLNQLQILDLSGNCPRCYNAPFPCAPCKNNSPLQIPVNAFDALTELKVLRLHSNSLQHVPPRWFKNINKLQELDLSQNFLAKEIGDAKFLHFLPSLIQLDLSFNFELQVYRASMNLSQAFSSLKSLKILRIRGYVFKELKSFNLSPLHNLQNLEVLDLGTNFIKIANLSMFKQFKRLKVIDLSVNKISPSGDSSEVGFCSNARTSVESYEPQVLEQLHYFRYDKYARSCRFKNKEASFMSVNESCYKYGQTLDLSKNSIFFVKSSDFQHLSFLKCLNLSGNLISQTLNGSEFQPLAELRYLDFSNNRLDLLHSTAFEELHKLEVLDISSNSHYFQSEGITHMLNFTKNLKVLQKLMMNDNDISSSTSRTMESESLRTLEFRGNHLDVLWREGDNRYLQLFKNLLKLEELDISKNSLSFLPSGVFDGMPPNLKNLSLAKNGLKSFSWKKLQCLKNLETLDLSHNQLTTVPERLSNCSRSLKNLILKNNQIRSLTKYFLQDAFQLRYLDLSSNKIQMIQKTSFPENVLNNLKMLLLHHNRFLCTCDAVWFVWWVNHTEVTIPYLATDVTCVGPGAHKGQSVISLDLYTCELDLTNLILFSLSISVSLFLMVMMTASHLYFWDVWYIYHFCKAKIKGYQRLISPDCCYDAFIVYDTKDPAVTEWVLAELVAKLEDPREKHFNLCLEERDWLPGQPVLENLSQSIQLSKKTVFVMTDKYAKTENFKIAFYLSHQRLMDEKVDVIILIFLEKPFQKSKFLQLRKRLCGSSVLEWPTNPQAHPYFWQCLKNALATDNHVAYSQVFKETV
# Test: HEK-Blue™ TLR7 cells were added to each well of a 384-well tissue-culture plate (15,000 cells per well) and incubated 16-18 h at 37° C., 5% CO2. Compounds (100 nl) were dispensed into wells containing the HEK-Blue™ TLR cells and the treated cells were incubated at 37° C., 5% CO2. After 18 h treatment ten microliters of freshly-prepared Quanti-Blue™ reagent (Invivogen) was added to each well, incubated for 30 min (37° C., 5% CO2) and SEAP levels measured using an Envision plate reader (OD=620 nm).
row,pEC50,SMILES
1,6.96,CCCCOc1nc(N)c2nc(O)n(Cc3ccc(CNCc4ccccc4)nc3)c2n1
2,8.54,CCCCOc1nc(N)c2nc(O)n(Cc3ccc(CNC4CCCC4)nc3)c2n1
3,7.66,CCCCOc1nc(N)c2nc(O)n(Cc3ccc(CNCc4ccccc4)cn3)c2n1
4,8.51,CCCCOc1nc(N)c2nc(O)n(Cc3ccc(CN4CCC(N)CC4)nc3)c2n1
5,7.96,CCCCCCNCc1ccc(Cn2c(O)nc3c(N)nc(OCCCC)nc32)cn1
6,8.31,CCCCOc1nc(N)c2nc(O)n(Cc3ccc(CN4CCC(CN)CC4)nc3)c2n1
